Measured values from patent publication US9546173B2 (Novartis AG, priority 2012, dated 2017).
pIC50: −log10 of the molar value. Like-named read-outs stand apart in the source and are kept apart here.

How the values were obtained:
Type in all cases: biochemical
[1] = target: RSK1 (Homo sapiens (Human), UniProt Q15418); test: In vitro inhibition of RSK1; settings: in vitro activity on RSK1
Method: (§1) The following Table 3 lists compounds that were tested for inhibition of RSK; the IC50 values are in micromolar units, and refer to inhibition of RSK1 and RSK2, respectively. Where multiple measurements were made, each value is reported.

[2] = target: RSK2 (Homo sapiens (Human), UniProt P51812); test: In vitro inhibition of RSK2; settings: in vitro activity on RSK2; where multiple measurements were made, each value is reported
Sequence of RSK2 (P51812 whole entry, species assumed): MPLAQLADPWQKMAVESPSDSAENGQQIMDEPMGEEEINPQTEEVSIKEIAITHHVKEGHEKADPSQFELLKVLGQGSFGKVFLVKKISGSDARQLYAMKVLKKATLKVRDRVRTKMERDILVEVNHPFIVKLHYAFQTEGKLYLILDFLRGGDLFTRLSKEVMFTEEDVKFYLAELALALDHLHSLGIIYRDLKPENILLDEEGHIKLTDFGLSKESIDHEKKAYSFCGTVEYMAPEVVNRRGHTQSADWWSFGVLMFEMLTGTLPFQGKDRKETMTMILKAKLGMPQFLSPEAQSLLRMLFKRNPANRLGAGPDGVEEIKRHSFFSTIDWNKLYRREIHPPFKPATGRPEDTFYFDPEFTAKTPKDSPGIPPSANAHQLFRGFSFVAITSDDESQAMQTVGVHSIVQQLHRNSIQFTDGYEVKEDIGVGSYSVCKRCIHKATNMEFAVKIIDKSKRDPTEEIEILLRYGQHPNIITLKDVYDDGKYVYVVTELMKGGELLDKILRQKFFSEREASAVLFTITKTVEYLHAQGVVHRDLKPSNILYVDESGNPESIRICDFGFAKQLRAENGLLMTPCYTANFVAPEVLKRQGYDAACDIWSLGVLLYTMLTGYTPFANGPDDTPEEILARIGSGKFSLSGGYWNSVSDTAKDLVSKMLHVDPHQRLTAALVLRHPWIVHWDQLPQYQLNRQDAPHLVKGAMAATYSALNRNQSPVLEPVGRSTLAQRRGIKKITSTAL
Method: as §1

[3] = target: activated ERK2 (Homo sapiens (Human), UniProt P28482); test: Activated ERK2 kinase assay (AlphaScreen, ERKtide peptide phosphorylation); settings: 35 μM ATP, 30 min preincubation, read-out: ERK2 IC50
Sequence of activated ERK2 (P28482 whole entry): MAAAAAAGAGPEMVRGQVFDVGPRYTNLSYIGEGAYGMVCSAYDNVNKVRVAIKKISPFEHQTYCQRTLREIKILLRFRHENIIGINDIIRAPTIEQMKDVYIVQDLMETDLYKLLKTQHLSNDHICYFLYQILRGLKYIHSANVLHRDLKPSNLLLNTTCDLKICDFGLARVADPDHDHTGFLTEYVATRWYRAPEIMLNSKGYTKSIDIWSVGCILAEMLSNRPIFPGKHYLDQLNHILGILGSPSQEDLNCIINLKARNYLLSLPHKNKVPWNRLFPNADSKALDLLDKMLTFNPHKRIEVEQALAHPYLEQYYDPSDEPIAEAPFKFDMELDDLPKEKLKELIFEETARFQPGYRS

[4] = […] ERK2, 200 nM ERKtide peptide

Sequence of RSK1 (Q15418 whole entry, species assumed): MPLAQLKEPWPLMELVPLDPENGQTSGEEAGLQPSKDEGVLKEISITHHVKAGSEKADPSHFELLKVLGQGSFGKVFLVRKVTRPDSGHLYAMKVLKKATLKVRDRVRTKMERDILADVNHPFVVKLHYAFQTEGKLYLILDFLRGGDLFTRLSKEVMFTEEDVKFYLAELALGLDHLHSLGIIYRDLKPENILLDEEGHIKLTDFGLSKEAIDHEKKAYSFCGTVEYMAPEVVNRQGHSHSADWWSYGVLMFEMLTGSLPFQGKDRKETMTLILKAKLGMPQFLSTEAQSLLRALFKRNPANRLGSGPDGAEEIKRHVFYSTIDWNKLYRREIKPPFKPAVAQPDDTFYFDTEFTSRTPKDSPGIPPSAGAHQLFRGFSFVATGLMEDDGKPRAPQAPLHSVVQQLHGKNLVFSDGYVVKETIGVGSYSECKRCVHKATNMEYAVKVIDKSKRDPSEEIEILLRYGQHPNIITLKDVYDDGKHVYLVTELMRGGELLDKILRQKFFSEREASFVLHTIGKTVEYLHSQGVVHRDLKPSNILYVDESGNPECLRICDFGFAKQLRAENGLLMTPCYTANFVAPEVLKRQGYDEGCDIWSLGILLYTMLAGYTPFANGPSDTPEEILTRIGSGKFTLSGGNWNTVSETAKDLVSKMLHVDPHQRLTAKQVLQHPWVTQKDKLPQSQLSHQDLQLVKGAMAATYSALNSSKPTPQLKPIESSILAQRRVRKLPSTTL

Row | pIC50 [1] | pIC50 [2] | pIC50 [3, 4] | pIC50 ([3]; 0.25 nM ERK2, 200 nM ERKtide peptide) | Structure (SMILES)
1 | 5.79 | 5.93 | 5.25 |  | CN1CCN(C(=O)N2Cc3nc(Nc4ccccc4)ncc3C2(C)C)CC1 [compound 151, (5,5-dimethyl-2-(phenylamino)-5H-pyrrolo[3,4-d]pyrimidin-6(7H)-yl)(4-methylpiperazin-1-yl)methanone]
2 |  | 4.79 | 4.35 |  | CN(C)Cc1ccccc1CNC(=O)N1Cc2nc(Nc3ccccc3)ncc2C1(C)C [compound 166, N-(2-((dimethylamino)methyl)benzyl)-5,5-dimethyl-2-(phenylamino)-5H-pyrrolo[3,4-d]pyrimidine-6(7H)-carboxamide]
3 |  | 5.09 | 4.79 |  | CC1(C)c2cnc(Nc3ccccc3)nc2CN1C(=O)NCc1cocn1 [compound 162, 5,5-dimethyl-N-(oxazol-4-ylmethyl)-2-(phenylamino)-5H-pyrrolo[3,4-d]pyrimidine-6(7H)-carboxamide]
4 |  | 5.41 | 4.39 |  | CN1CCC(NC(=O)N2Cc3nc(Nc4ccccc4)ncc3C2(C)C)C1 (stereo not drawn) [compound 158, 5,5-dimethyl-N-(1-methylpyrrolidin-3-yl)-2-(phenylamino)-5H-pyrrolo[3,4-d]pyrimidine-6(7H)-carboxamide]
5 |  | 4.82 |  | 4.72 | CC1(C)c2cnc(Nc3ccccc3)nc2CN1C(=O)NC1CCOCC1 [compound 165, 5,5-dimethyl-2-(phenylamino)-N-(tetrahydro-2H-pyran-4-yl)-5H-pyrrolo[3,4-d]pyrimidine-6(7H)-carboxamide]
6 |  | 4.86 | 4.08 |  | CN1CCC(NC(=O)N2Cc3nc(Nc4ccccc4)ncc3C2(C)C)CC1 [compound 163, 5,5-dimethyl-N-(1-methylpiperidin-4-yl)-2-(phenylamino)-5H-pyrrolo[3,4-d]pyrimidine-6(7H)-carboxamide]
7 |  | 5.72 | 6.01 |  | CC1(C)c2cnc(Nc3ccccc3)nc2CN1C(=O)NC1CCN(Cc2ccccc2)C1 (stereo not drawn) [compound 155, N-(1-benzylpyrrolidin-3-yl)-5,5-dimethyl-2-(phenylamino)-5H-pyrrolo[3,4-d]pyrimidine-6(7H)-carboxamide]
8 |  | 5.09 | 3.90 |  | CN(C)[C@@H]1CCCC[C@H]1NC(=O)N1Cc2nc(Nc3ccccc3)ncc2C1(C)C [compound 161, N-((1R,2R)-2-(dimethylamino)cyclohexyl)-5,5-dimethyl-2-(phenylamino)-5H-pyrrolo[3,4-d]pyrimidine-6(7H)-carboxamide]
9 |  | 5.41 | 4.60 |  | CN(C)CCNC(=O)N1Cc2nc(Nc3ccccc3)ncc2C1(C)C [compound 157, N-(2-(dimethylamino)ethyl)-5,5-dimethyl-2-(phenylamino)-5H-pyrrolo[3,4-d]pyrimidine-6(7H)-carboxamide]
10 |  | 5.25 | 4.71 |  | CC1(C)c2cnc(Nc3ccccc3)nc2CN1C(=O)NCC1CCN(Cc2ccccc2)C1 (stereo not drawn) [compound 159, N-((1-benzylpyrrolidin-3-yl)methyl)-5,5-dimethyl-2-(phenylamino)-5H-pyrrolo[3,4-d]pyrimidine-6(7H)-carboxamide]
